# From article PMC10847306, “The antibacterial activity and mechanism of a novel peptide MR-22 against multidrug-resistant Escherichia coli” (Frontiers in Cellular and Infection Microbiology, 2024)
# Columns and labels:
# Assay in all cases: microbe, parasite or virus in culture
# E. coli ATCC 25922 = settings: for susceptibility category (S/I/R) given with the MIC: E. coli ATCC 25922; for MIC: Escherichia coli, ATCC25922, 18 h
# Description: (§1) The MIC were determined by a micro dilution method in Mueller-Hinton broth (MHB) ([Cuenca-Estrella et al., 2010]). The final concentration of bacterial suspension in MHB were 1.0×10^6 CFU/mL. The final concentration of MR-22 ranged 1 ~ 256 μg/mL in 96 wells plate broth at 37°C for 16~18 h. Imipenem was employed as positive control, bacterial grown without treatment as negative control and MHB as blank control. MIC determination was performed by reading the OD600 nm. Take 100 μL samples in holes that have never seen bacterial growth and place them on the LB agar board. The concentration of MR-22 with no bacterial growth was defined as the MBC.
# [1] = test system: E. coli clinical strain E01; settings: for MIC: Escherichia coli, 18 h; for susceptibility category (S/I/R) given with the MIC: strain E01
# Description: (§2) The clinical strains used in this study were obtained from a tertiary healthcare facility located in Guiyang, a city situated within the Guizhou Province of China. The E. coli ATCC 25922 was obtained from the Key and Characteristic Laboratory of Modern Pathogen Biology at Guizhou Medical University in Guiyang, China. All strains were stored at –80°C in LB medium and routinely cultured at LB medium at 37°C.
# as §1
# [2] = test system: E. coli clinical strain E02; settings: for MIC: Escherichia coli, 18 h; for susceptibility category (S/I/R) given with the MIC: strain E02
# Description: as §2, §1
# [3] = test system: E. coli clinical strain E03; settings: for MIC: Escherichia coli, 18 h; for susceptibility category (S/I/R) given with the MIC: strain E03
# Description: as §2, §1
# [4] = test system: E. coli clinical strain E04; settings: for MIC: Escherichia coli, 18 h; for susceptibility category (S/I/R) given with the MIC: strain E04
# Description: as §2, §1
# [5] = test system: E. coli clinical strain E05; settings: for MIC: Escherichia coli, 18 h; for susceptibility category (S/I/R) given with the MIC: strain E05
# Description: as §2, §1
# [6] = test system: E. coli clinical strain E06; settings: for MIC: Escherichia coli, 18 h; for susceptibility category (S/I/R) given with the MIC: strain E06
# Description: as §2, §1
# [7] = test system: E. coli clinical strain E07; settings: for MIC: Escherichia coli, 18 h; for susceptibility category (S/I/R) given with the MIC: strain E07
# Description: as §2, §1
# [8] = test system: E. coli clinical strain E08; settings: for MIC: Escherichia coli, 18 h; for susceptibility category (S/I/R) given with the MIC: strain E08
# Description: as §2, §1
# [9] = test system: E. coli clinical strain E09; settings: for MIC: Escherichia coli, 18 h; for susceptibility category (S/I/R) given with the MIC: strain E09
# Description: as §2, §1
# [10] = test system: E. coli clinical strain E10; settings: for MIC: Escherichia coli, 18 h; for susceptibility category (S/I/R) given with the MIC: strain E10
# Description: as §2, §1
# [11] = test system: E. coli clinical strain E11; settings: for MIC: Escherichia coli, 18 h; for susceptibility category (S/I/R) given with the MIC: strain E11
# Description: as §2, §1
# [12] = test system: E. coli clinical strain E12; settings: for MIC: Escherichia coli, 18 h; for susceptibility category (S/I/R) given with the MIC: strain E12
# Description: as §2, §1
# [13] = test system: E. coli clinical strain E13; settings: for MIC: Escherichia coli, 18 h; for susceptibility category (S/I/R) given with the MIC: strain E13
# Description: as §2, §1
# [14] = test system: E. coli clinical strain E14; settings: for MIC: Escherichia coli, 18 h; for susceptibility category (S/I/R) given with the MIC: strain E14
# Description: as §2, §1
# [15] = test system: E. coli clinical strain E15; settings: for MIC: Escherichia coli, 18 h; for susceptibility category (S/I/R) given with the MIC: strain E15
# Description: as §2, §1
# [16] = test system: E. coli clinical strain E16; settings: for MIC: Escherichia coli, 18 h; for susceptibility category (S/I/R) given with the MIC: strain E16
# Description: as §2, §1
# [17] = test system: E. coli clinical strain E17; settings: for MIC: Escherichia coli, 18 h; for susceptibility category (S/I/R) given with the MIC: strain E17
# Description: as §2, §1
# [18] = test system: E. coli clinical strain E18; settings: for MIC: Escherichia coli, 18 h; for susceptibility category (S/I/R) given with the MIC: strain E18
# Description: as §2, §1
# [19] = test system: E. coli clinical strain E19; settings: for MIC: Escherichia coli, 18 h; for susceptibility category (S/I/R) given with the MIC: strain E19
# Description: as §2, §1
# [20] = test system: E. coli clinical strain E20; settings: for MIC: Escherichia coli, 18 h; for susceptibility category (S/I/R) given with the MIC: strain E20
# Description: as §2, §1
# [21] = test system: E. coli clinical strain E21; settings: for MIC: Escherichia coli, 18 h; for susceptibility category (S/I/R) given with the MIC: strain E21
# Description: as §2, §1
# [22] = test system: E. coli clinical strain E22; settings: for MIC: Escherichia coli, 18 h; for susceptibility category (S/I/R) given with the MIC: strain E22
# Description: as §2, §1
structure (smiles),measurement,setting,value
"CO/N=C(\C(=O)N[C@@H]1C(=O)N2C(C(=O)[O-])=C(C[N+]3(C)CCCC3)CS[C@H]12)c1csc(N)n1 [FEP, cefepime]",susceptibility category (S/I/R) given with the MIC,E. coli ATCC 25922,S
same,MIC,E. coli ATCC 25922,≤ 2 µg/mL
same,MIC,[1],≤ 2 µg/mL
same,susceptibility category (S/I/R) given with the MIC,[1],S
same,MIC,[2],> 16 µg/mL
same,susceptibility category (S/I/R) given with the MIC,[2],R
same,MIC,[3],16 µg/mL
same,susceptibility category (S/I/R) given with the MIC,[3],R
same,MIC,[4],> 16 µg/mL
same,susceptibility category (S/I/R) given with the MIC,[4],R
same,MIC,[5],> 16 µg/mL
same,susceptibility category (S/I/R) given with the MIC,[5],R
same,MIC,[6],> 16 µg/mL
same,susceptibility category (S/I/R) given with the MIC,[6],R
same,MIC,[7],> 16 µg/mL
same,susceptibility category (S/I/R) given with the MIC,[7],R
same,MIC,[8],≤ 2 µg/mL
same,susceptibility category (S/I/R) given with the MIC,[8],S
same,MIC,[9],≤ 2 µg/mL
same,susceptibility category (S/I/R) given with the MIC,[9],S
same,MIC,[10],16 µg/mL
same,susceptibility category (S/I/R) given with the MIC,[10],R
same,MIC,[11],> 16 µg/mL
same,susceptibility category (S/I/R) given with the MIC,[11],R
same,MIC,[12],4 µg/mL
same,susceptibility category (S/I/R) given with the MIC,[12],I
same,MIC,[13],≤ 2 µg/mL
same,susceptibility category (S/I/R) given with the MIC,[13],S
same,MIC,[14],16 µg/mL
same,susceptibility category (S/I/R) given with the MIC,[14],R
same,MIC,[15],≤ 2 µg/mL
same,susceptibility category (S/I/R) given with the MIC,[15],S
same,MIC,[16],≤ 2 µg/mL
same,susceptibility category (S/I/R) given with the MIC,[16],S
same,MIC,[17],≤ 2 µg/mL
same,susceptibility category (S/I/R) given with the MIC,[17],S
same,MIC,[18],16 µg/mL
same,susceptibility category (S/I/R) given with the MIC,[18],R
same,MIC,[19],16 µg/mL
same,susceptibility category (S/I/R) given with the MIC,[19],R
same,MIC,[20],16 µg/mL
same,susceptibility category (S/I/R) given with the MIC,[20],R
same,MIC,[21],16 µg/mL
same,susceptibility category (S/I/R) given with the MIC,[21],R
same,MIC,[22],≥ 32 µg/mL
same,susceptibility category (S/I/R) given with the MIC,[22],R
"CN(C)[C@@H]1C(O)=C(C(N)=O)C(=O)[C@@]2(O)C(O)=C3C(=O)c4c(O)cccc4[C@@](C)(O)[C@H]3C[C@@H]12 [TET, tetracycline]",susceptibility category (S/I/R) given with the MIC,E. coli ATCC 25922,S
same,MIC,E. coli ATCC 25922,≤ 0.5 µg/mL
same,MIC,[1],≤ 0.5 µg/mL
same,susceptibility category (S/I/R) given with the MIC,[1],S
same,MIC,[2],> 8 µg/mL
same,susceptibility category (S/I/R) given with the MIC,[2],R
same,MIC,[3],> 8 µg/mL
same,susceptibility category (S/I/R) given with the MIC,[3],R
same,MIC,[4],> 8 µg/mL
same,susceptibility category (S/I/R) given with the MIC,[4],R
same,MIC,[5],> 8 µg/mL
same,susceptibility category (S/I/R) given with the MIC,[5],R
same,MIC,[6],> 8 µg/mL
same,susceptibility category (S/I/R) given with the MIC,[6],R
same,MIC,[7],> 8 µg/mL
same,susceptibility category (S/I/R) given with the MIC,[7],R
same,MIC,[8],> 8 µg/mL
same,susceptibility category (S/I/R) given with the MIC,[8],R
same,MIC,[9],> 8 µg/mL
same,susceptibility category (S/I/R) given with the MIC,[9],R
same,MIC,[10],≤ 0.5 µg/mL
same,susceptibility category (S/I/R) given with the MIC,[10],S
same,MIC,[11],> 8 µg/mL
same,susceptibility category (S/I/R) given with the MIC,[11],R
same,MIC,[12],> 8 µg/mL
same,susceptibility category (S/I/R) given with the MIC,[12],R
same,MIC,[13],≤ 0.5 µg/mL
same,susceptibility category (S/I/R) given with the MIC,[13],S
same,MIC,[14],> 8 µg/mL
same,susceptibility category (S/I/R) given with the MIC,[14],R
same,MIC,[15],≤ 0.5 µg/mL
same,susceptibility category (S/I/R) given with the MIC,[15],S
same,MIC,[16],≤ 0.5 µg/mL
same,susceptibility category (S/I/R) given with the MIC,[16],S
same,MIC,[17],≤ 0.5 µg/mL
same,susceptibility category (S/I/R) given with the MIC,[17],S
same,MIC,[18],≤ 0.5 µg/mL
same,susceptibility category (S/I/R) given with the MIC,[18],S
same,MIC,[19],≤ 0.5 µg/mL
same,susceptibility category (S/I/R) given with the MIC,[19],S
same,MIC,[20],≤ 0.5 µg/mL
same,susceptibility category (S/I/R) given with the MIC,[20],S
same,MIC,[21],≤ 0.5 µg/mL
same,susceptibility category (S/I/R) given with the MIC,[21],S
same,MIC,[22],≤ 0.5 µg/mL
same,susceptibility category (S/I/R) given with the MIC,[22],S
"C[C@H]1COc2c(N3CCN(C)CC3)c(F)cc3c(=O)c(C(=O)O)cn1c23 [LEV, levofloxacin]",susceptibility category (S/I/R) given with the MIC,E. coli ATCC 25922,S
same,MIC,E. coli ATCC 25922,≤ 0.5 µg/mL
same,MIC,[1],≤ 0.5 µg/mL
same,susceptibility category (S/I/R) given with the MIC,[1],S
same,MIC,[2],≤ 0.5 µg/mL
same,susceptibility category (S/I/R) given with the MIC,[2],S
same,MIC,[3],8 µg/mL
same,susceptibility category (S/I/R) given with the MIC,[3],R
same,MIC,[4],> 8 µg/mL
same,susceptibility category (S/I/R) given with the MIC,[4],R
same,MIC,[5],≤ 0.5 µg/mL
same,susceptibility category (S/I/R) given with the MIC,[5],S
same,MIC,[6],8 µg/mL
same,susceptibility category (S/I/R) given with the MIC,[6],R
same,MIC,[7],≤ 0.5 µg/mL
same,susceptibility category (S/I/R) given with the MIC,[7],S
same,MIC,[8],≤ 0.5 µg/mL
same,susceptibility category (S/I/R) given with the MIC,[8],S
same,MIC,[9],8 µg/mL
same,susceptibility category (S/I/R) given with the MIC,[9],R
same,MIC,[10],≤ 0.5 µg/mL
same,susceptibility category (S/I/R) given with the MIC,[10],S
same,MIC,[11],≤ 0.5 µg/mL
same,susceptibility category (S/I/R) given with the MIC,[11],S
same,MIC,[12],> 8 µg/mL
same,susceptibility category (S/I/R) given with the MIC,[12],R
same,MIC,[13],≤ 0.5 µg/mL
same,susceptibility category (S/I/R) given with the MIC,[13],S
same,MIC,[14],> 8 µg/mL
same,susceptibility category (S/I/R) given with the MIC,[14],R
same,MIC,[15],0.5 µg/mL
same,susceptibility category (S/I/R) given with the MIC,[15],S
same,MIC,[16],1 µg/mL
same,susceptibility category (S/I/R) given with the MIC,[16],I
same,MIC,[17],> 8 µg/mL
same,susceptibility category (S/I/R) given with the MIC,[17],R
same,MIC,[18],> 8 µg/mL
same,susceptibility category (S/I/R) given with the MIC,[18],R
same,MIC,[19],> 8 µg/mL
same,susceptibility category (S/I/R) given with the MIC,[19],R
same,MIC,[20],> 8 µg/mL
same,susceptibility category (S/I/R) given with the MIC,[20],R
same,MIC,[21],≤ 0.5 µg/mL
same,susceptibility category (S/I/R) given with the MIC,[21],S
same,MIC,[22],> 8 µg/mL
same,susceptibility category (S/I/R) given with the MIC,[22],R
